Experimental data from a melting point compilation (Tetko et al.; mined from patent text by program, amines drawn as free bases though some values may be those of a salt).

`Cc1nc(-c2ccc(OCC(C)(C)C)c([N+](=O)[O-])c2)sc1C(=O)O` gave a melting point of 242 to 245 °C.
With `CC1=Cc2cccc(S(N)(=O)=O)c2OS1(=O)=O` the melting point was 204 to 205 °C.
`CCN1C(=O)CC2(CC(=O)N(Cc3ccccc3)C2)C1=O` (centres undefined) showed a melting point of 125 to 126 °C.
`N#CCCn1nc2ccc(Cl)nn2c1=O` showed a melting point of 166 to 168 °C.
`CCOC(=O)c1ncn(Cc2ccccc2)c1OC` gave a melting point of 127 to 128 °C.
For `CC(C)(C)c1cccc(S(=O)(=O)n2c(C(O)c3ccc(C(=O)O)s3)cc3cc(C(F)(F)F)ccc32)c1` (centres undefined), the melting point was 90 °C.
For `Clc1ccc(-c2c(-c3ccccc3)nn3ccccc23)nn1`, the melting point was 206 °C.
In the case of `CCOc1ccccc1CNC(=O)[C@@H]1CCCN(c2cccc3c2C(=O)N(Cc2ccncc2)C3=O)C1`, the melting point is reported as 194 to 195 °C.
Work on `COc1csc(Cc2c(C(C)C)cc(C(C)C)c(C(C)O)c2-c2ccc(F)cc2)c1` (single isomer, unassigned; (+)) yielded a melting point of 140 to 142 °C.
With `CCCCCCCCCNC(=O)OCCCNC(=O)OC1CCN(C(=O)Oc2ccc(Oc3ccccc3)cc2)CC1` the melting point was 89 to 91 °C.
In the case of `COc1ccn(-c2ccc(C3CCN(S(=O)(=O)C(C)(C)C(=O)NO)CC3)cc2C)n1`, the melting point is reported as 172 to 173 °C.
For `CC(=O)Nc1nc(CSc2ccc([N+](=O)[O-])cc2)cs1`, the melting point was 165 to 166 °C.
In the case of `C[C@H]([C@](O)(Cn1cncn1)c1ccc(F)cc1F)S(N)(=O)=O`, the melting point is reported as 195 to 197 °C.
In the case of `OCc1cccnc1Nc1cccc(C(F)(F)F)c1`, the melting point is reported as 102 °C.
Work on `Cn1cc(C2=C(c3c4n(c5ccccc35)CCC(CNC=O)C4)C(=O)NC2=O)c2ccccc21` (centres undefined) yielded a melting point of 332 to 334 °C.
In the case of `COc1cccc2sc(Sc3ccc4c(c3)CC[C@H]3N(C)C(=O)CC[C@]43C)nc12`, the melting point is reported as 200 to 205 °C.
In the case of `Clc1cc2c(cc1Cn1ccnc1)OCO2`, the melting point is reported as 99 to 102 °C.
Compound `Cc1cc2c(nc(C)n2CCc2ccccc2)c(N)n1` has a melting point of 185 to 187 °C.
For `COC(=O)C(=O)CC(=O)c1ccc(Cc2ccc(Cl)c(Cl)c2)cc1`, the melting point was 104 to 106 °C.
`CC(=O)NNC1=Nc2ccc(Cl)cc2C(c2c(F)cccc2F)=NC1` showed a melting point of 274 to 277 °C.
Work on `Nc1ccc(C(=O)C(O)c2ccccc2)cc1` (centres undefined) yielded a melting point of 199 to 203 °C.
Work on `CC(C)OC(=O)Nc1ccc(NC=O)c([N+](=O)[O-])c1` yielded a melting point of 168 to 170 °C.
Compound `Cc1cc(C)cc(S(=O)(=O)n2c(CCC(=O)O)cc3nc(C(F)(F)F)ccc32)c1` has a melting point of 185 to 189 °C.
`Cc1nnc2c3c(c(NCCN4CCCC4)nn12)CCCC3` gave a melting point of 184 to 186 °C.
With `COC(=O)[C@@H]1COC(c2ncn3c2CN(C)C(=O)c2sccc2-3)=N1` the melting point was 215 to 217 °C.
For `COC(=O)c1ccc(OCC2CC(=O)N(c3ccc(OS(C)(=O)=O)cc3)C2)cc1` (centres undefined), the melting point was 111 to 113 °C.
For `O=C(O)CCc1conc1-c1ccc(Cl)cc1`, the melting point was 149 to 150 °C.
With `O=C(O)c1ccc2oc(-c3ccc(O)cc3)cc2c1` the melting point was over 300 °C.
Compound `CCOC(=O)Cc1nc(-c2ccc(Cl)cc2)oc1-c1ccsc1` has a melting point of 127 to 128 °C.
With `COC(=O)c1ccc(-c2csc(N3C(=O)OCC3(C)C)n2)cc1` the melting point was 176 to 179 °C.
`O=C(O)C[C@@H](c1cc(F)cc(F)c1)C(F)(F)F` showed a melting point of 73 to 75 °C.
Compound `CC(=O)OCCn1ncc(-c2ncc([N+](=O)[O-])n2C)c1C` has a melting point of 79 °C.
`Cc1cccc(NC(=O)Nc2cccc3c2C2CC(=O)CCN2C3=O)n1` (centres undefined) showed a melting point of 226 to 228 °C.
With `O=C(Oc1ccccc1)N1CCC2(CC1)c1ccccc1Sc1ccccc12` the melting point was 149 to 151 °C.
`COc1cc(/C=[N+](\[O-])C(C)C)ccc1O` gave a melting point of 178 to 180 °C.
In the case of `CCOC(=O)c1cc(O)cc(O)c1`, the melting point is reported as 128 to 130 °C.
For `N#CC(=NO)c1c(Cl)cccc1Cl`, the melting point was 94 to 96 °C.
`O=C(Cc1ccc(O)cc1)OCCC(c1ccccc1)(c1ccccc1)c1ccccc1` gave a melting point of 136 to 138 °C.
With `O=C(CCN1CCNC1=O)N1CCC(C2c3ncc(Br)cc3CCc3cc(Cl)cc(Br)c32)CC1` (single isomer, unassigned; (+)) the melting point was 202 to 203 °C.
Compound `O=C(c1cc(=O)c2c(OCCOc3ccccc3)cccc2o1)N1CCN(CCO)CC1` has a melting point of 191 °C.
For `CCCc1c(OCCOc2ccc(N)cc2)ccc(C(C)=O)c1O`, the melting point was 73 to 74 °C.
`COc1ccc(C2=NN(CCCCBr)C(=O)[C@H]3CC=CC[C@@H]23)cc1OC` (relative stereo) showed a melting point of 102 to 103 °C.
For `C[C@@H](S[C@H]1CO[C@H](c2ccc(C(=O)NCc3cccc4ccccc34)cc2)OC1)[C@](O)(Cn1cncn1)c1ccc(F)cc1F`, the melting point was 97 °C.
Compound `CSc1nn2c(N)cc(C)nc2c1S(=O)(=O)c1ccc(C)cc1` has a melting point of over 230 °C.
With `CCOc1nc(=O)n(C(C)C)c(=O)[nH]1` the melting point was 170 to 171 °C.
Compound `O=c1[nH]c(=O)n(C2CC(OCc3ccccc3)C(CO)O2)cc1C(F)(F)F` (centres undefined) has a melting point of 157 to 158 °C.
For `O=C(O)c1ccc(-c2nc(-c3cccc(OC(F)(F)F)c3)cs2)cc1`, the melting point was 233 to 234 °C.
For `CC1(C)CCC(C)(C)c2c(C(O)C#C[Si](C)(C)C)cc(-c3ccccc3)cc21` (centres undefined), the melting point was 145 °C.
For `C=Cc1cc2c(cc1Cl)C=C(C(=O)O)C(C(F)(F)F)O2` (centres undefined), the melting point was over 200 °C.
Work on `Nc1ncnc2c1c(-c1ccccc1Cl)cn2-c1ccccc1` yielded a melting point of 175 to 176 °C.
Compound `Nc1ncccc1-c1nc2cc(Br)cnc2n1-c1ccc(NC(=O)c2ccccc2)cc1` has a melting point of 242 to 244 °C.
Compound `CCOc1ccc(-c2nc(CCC(=O)OC)cs2)cc1OCC` has a melting point of 58.1 to 58.3 °C.
`CC(C)(C)[Si](C)(C)O[C@@H]1[C@H](O)C[C@]2(O[Si](C)(C)C(C)(C)C)C[C@H]1OC2=O` showed a melting point of 107 to 108 °C.
`CC(C)Oc1ccc(S(=O)(=O)c2c(O)cccc2F)c([N+](=O)[O-])c1` gave a melting point of 117 to 119 °C.
With `N#CCc1cccc2c(-c3ccc(Cl)cc3)nccc12` the melting point was 132 °C.
For `CCCN(C(=O)OCC(Cl)(Cl)Cl)C1CN(C(=O)Nc2ccc(C(F)(F)F)cc2)N=C1c1ccc(OC(F)F)c(C)c1` (centres undefined), the melting point was 165 to 166 °C.
`Cc1ccc(CI)cc1Cl` gave a melting point of 88 °C.
In the case of `CCCCCCCCCCCCCCCCCCOc1cc(OCC(=O)OC)cc(C(=O)N(CC(=O)OC)CC(=O)OC)c1`, the melting point is reported as 53 to 55 °C.
`C=CCn1c(=O)c(C(=O)OCC)c(O)c2ccc(C)nc21` gave a melting point of 110 to 112 °C.
Compound `CCOC(=O)C(=O)NNC(=O)c1cc(C)cc(C)c1` has a melting point of 159 °C.
Work on `Cc1ccccc1-c1ccc(C(=O)N2Cc3ccc(C(=O)NCc4cccc(N)c4)n3Cc3ccccc32)cc1C` yielded a melting point of 105 to 115 °C.
For `CCOC(=O)c1c[nH]c2c(OC)ccc(-c3ccccc3)c2c1=O`, the melting point was 234 to 237 °C.
`CCn1nc(C(F)(F)F)c(CS(=O)(=O)C2=NOC(C)(CCl)C2)c1F` (centres undefined) gave a melting point of 73 to 75 °C.
`COC(=O)c1c(N)ccc([N+](=O)[O-])c1C` gave a melting point of 92 to 94 °C.
With `CO/C=C(/C(=O)OC)c1ccccc1Oc1nc(Cl)nc(Oc2ccccc2)n1` the melting point was 103 to 104 °C.
`COc1ccc(N2CCN(c3c(C)c(C)c4c(c3C)C(O)(c3ccc(C(F)(F)F)cc3)C(C)(C)O4)CC2)cc1` (centres undefined) gave a melting point of 181 to 183 °C.
Work on `COc1ccc([C@H](C)NC(=O)c2cccnc2Oc2ccc(F)cc2)cc1` yielded a melting point of 97 to 99 °C.
`Cc1cc(-c2ccc(Cl)cc2)nc2c(C(=O)Nc3cccc(S(N)(=O)=O)c3)cnn12` showed a melting point of 308 to 310 °C.
With `O=C1C(c2cccc(Br)c2)n2cncc2CN1Cc1cccnc1` (centres undefined) the melting point was 50 to 54 °C.
Compound `CN1CC(=O)Nc2ccc(C(F)(F)F)cc2C1=O` has a melting point of 203 to 206 °C.
Compound `CCOC(=O)C1=C(C)NC(C)=C(C(=O)OCCN2CCN(C(c3ccccc3)c3ccccc3)CC2)C1c1ccc(Cl)cc1` (centres undefined) has a melting point of 75 to 79 °C.
`COC(=O)CCCc1cc2cc(Cl)ccc2n1S(=O)(=O)c1ccc2sc(C)nc2c1` gave a melting point of 136 to 138 °C.
`COCCOc1ccc(C#CC2(O)CN3CCC2CC3)cc1Cl` (centres undefined) showed a melting point of 138 to 139 °C.
Compound `CC(C)NC(=O)N1CCc2[nH]cnc2C1c1cccnc1` (centres undefined) has a melting point of 237 °C.
With `Cc1nn(C)c(C)c1S(=O)(=O)n1c(CCCC(=O)O)cc2cc(Cl)ccc21` the melting point was 142 to 145 °C.
`CS(=O)(=O)C(=C1CN(C(c2ccccc2)c2ccccc2)C1)c1cc(Cl)ccc1Cl` gave a melting point of 202 °C.
With `C=CCOC(=O)C1=C(C)Nc2nc(N)nc(N)c2C1c1cccc([N+](=O)[O-])c1` (centres undefined) the melting point was 188 °C.
Compound `CC1(C)N=C(S)N=C(NC(=O)c2ccccc2)N1` has a melting point of 176 to 178 °C.
`NC(Cc1cccc(O)c1)c1ccccc1` (centres undefined) gave a melting point of 179 to 181 °C.
Compound `Cc1sc(-c2ccc(C#N)cc2)nc1O` has a melting point of 220 to 221 °C.
`O=C1N(CCOCc2ccccc2)CCN1c1ccc(C(F)(F)F)cc1` gave a melting point of 66 to 68 °C.
`CCN(CC)CCCNC(=O)/C(=C/C=C/c1cc2ccccc2o1)OC` showed a melting point of 79 °C.
For `FC(COC1CCC(Nc2ncnc3[nH]ncc23)CC1F)c1ccccc1` (centres undefined), the melting point was 204 to 205 °C.
For `COc1cc(C2CCCO2)cc(OC)c1OC` (centres undefined), the melting point was 102 to 104 °C.
In the case of `CC(C)(C)c1ccc(N(Cc2cccc3ccccc23)c2ccccc2)cc1`, the melting point is reported as 135 to 137 °C.
Work on `CCO[C@@H](Cc1ccc(O)cc1)C(=O)O` yielded a melting point of 105 °C.
`COc1ccccc1P(CC(CCCCCCO)CP(c1ccccc1OC)c1ccccc1OC)c1ccccc1OC` showed a melting point of 47 to 50 °C.
For `Nc1nc(-c2ccc(Cl)cc2)c(CCO)c2ncnn12`, the melting point was 207 to 208 °C.
With `CC1(C)CCC(C(=O)N2CCC[C@H]2C(=O)O)C1SC(=O)c1ccccc1` (some centres undefined) the melting point was 187 °C.
In the case of `COc1ccc(N2CCOCC2)c2sc(C(N)=O)nc12`, the melting point is reported as 228 to 230 °C.
`O=C(CCc1ccc(O)cc1)OCc1ccc([N+](=O)[O-])cc1` gave a melting point of 80 to 82 °C.
Compound `O=C1C(=O)c2ccccc2C2=C1SCC1(CCN(CC(O)COc3ccc(Cl)cc3)CC1)O2` (centres undefined) has a melting point of 138 to 140 °C.
`CCS(=O)(=O)c1ccc(C(=O)O)c(Cl)c1Cl` gave a melting point of 170 to 172 °C.
Work on `CCOC(=O)c1c[nH]c2cccc(O)c12` yielded a melting point of 151 to 153 °C.
With `O=C1c2ccccc2-c2c(Cl)nc3ccccc3c21` the melting point was 149 to 150 °C.
For `CCn1c(C=O)cnc1[N+](=O)[O-]`, the melting point was 38 to 40 °C.
Work on `CCCCNc1nc(C)c(C(=O)OCC)c(N)c1[N+](=O)[O-]` yielded a melting point of 74 to 76 °C.
`CCCCCOc1ccc(OCC(O)CC#CCCCC(=O)O)cc1` (centres undefined) showed a melting point of 58 to 60 °C.
`CCOC(=O)CC(NC(=O)c1cc(NC(=O)OC(C)(C)C)cc(OCc2ccccc2)c1)c1ccccc1` (racemic) gave a melting point of 115 °C.
